Laboratory results published in patent US11584765B2 (priority 2017, dated 2023).

Tested on: C57BL/6 mice
Experiment: animal or person
Format: in vivo
Settings: Mus musculus, sc, 0.5 h, s.c. administration, 30 min, 55° C. water, read-out: ED50 (mg/kg) at 30 min on C57BL/6 mice in Warm-water Tail-flick Test

Row | Compound | ED50 [mg/kg]
1 | CCOCC1(CCc2ccccc2)CCN(Cc2ccc(C)nc2)C1 (stereo not shown) [Compound 276, 5-((3-(ethoxymethyl)-3-phenethylpyrrolidin-1-yl)methyl)-2-methylpyridine] | < 10
2 | CCOCC1(CCc2ccccc2)CCN(Cc2cccnc2)CC1 [Compound 244, 3-((4-(ethoxymethyl)-4-phenethylpiperidin-1-yl)methyl)pyridine] | < 10
3 | CCOC[C@@]1(CCc2ccc(OC)nc2)CCN(C(C)(C)c2ccc(C)nc2)C1.Cl [Compound 370, (S)-5-(2-(3-(ethoxymethyl)-1-(2-(6-methylpyridin-3-yl)propan-2-yl)pyrrolidin-3-yl)ethyl)-2-methoxypyridine HCl] | < 10
4 | CCOCC1(CCc2ccccc2)CCN(Cc2ccc(C(=O)O)cc2)CC1 [Compound 145, 4-((4-(ethoxymethyl)-4-phenethylpiperidin-1-yl)methyl)benzoic acid] | > 10
5 | CCOCC1(CCc2cc(C)sc2C)CCN(C2(c3ccc(C)nc3)CC2)C1 (stereo not shown) [Compound 374, 5-(1-(3-(2-(2,5-dimethylthiophen-3-yl)ethyl)-3-(ethoxy-methyl)pyrrolidin-1-yl)cyclopropyl)-2-methylpyridine] | < 10
6 | CCOCC1(CCc2cscc2C)CCN(Cc2cccnc2)C1 (stereo not shown) [Compound 288, 3-((3-(ethoxymethyl)-3-(2-(4-methylthiophen-yl)ethyl)pyrrolidin-1-yl)methyl)pyridine] | < 10
7 | CCOC[C@@]1(CCc2nc(C)c(C)s2)CCN(C(C)(C)c2ccc(C)nc2)C1.Cl [Compound 450, (S)-2-(2-(3-(ethoxymethyl)-1-(2-(6-methylpyridin-3-yl)propan-2-yl)pyrrolidin-3-yl)ethyl)-4,5-dimethylthiazole HCl] | < 10
8 | CC(=O)Nc1ccc(CN2CCC(CCc3ccccc3)(c3nncs3)CC2)cc1 [Compound 8] | > 10
9 | CCOC[C@@]1(CCc2cscc2C)CCN(Cc2cccnc2)C1 [Compound 385, (S)-3-((3-(ethoxymethyl)-3-(2-(4-methylthiophen-3-yl)ethyl)pyrrolidin-1-yl)methyl)pyridine] | < 10
10 | CCOCC1(CCc2ccsc2C)CCN(Cc2cccnc2)C1 (stereo not shown) [Compound 286, 3-((3-(ethoxymethyl)-3-(2-(2-methylthiophen-yl)ethyl)pyrrolidin-1-yl)methyl)pyridine] | < 10
11 | Cc1ccc(CN2[C@@H](C)CC(CCc3ccc(F)cc3)(c3ccccn3)C[C@@H]2C)cn1 (stereo partly drawn) [Compound 418, 5-(((2S,6S)-4-(4-fluorophenethyl)-2,6-dimethyl-4-(pyridin-2-yl)piperidin-1-yl)methyl)-2-methylpyridine] | > 10
12 | CCOC(=O)NCC1(CCc2ccccc2)CCN(Cc2ccc(NC(C)=O)cc2)CC1 [Compound 77, ethyl (1-(4-acetamidobenzyl)-4-phenethylpiperidin-4-yl)methylcarbamate] | > 10
13 | CC(=O)Nc1ccc(CN2CCC(CCc3ccccc3)(C3C=CCO3)C2)cc1 (stereo not shown) [Compound 179, N-(4-((3-(2,5-dihydrofuran-2-yl)-3-phenethylpyrrolidin-1-yl)methyl)phenyl)acetamide] | < 10
14 | CCOCC1(CCc2ccccc2)CCN(Cc2ccc(-c3nnn[nH]3)cc2)CC1.Cl [Compound 154, 1-(4-(1H-tetrazol-5-yl)benzyl)-4-(ethoxymethyl)-4-phenethylpiperidine HCl] | > 10
15 | CCOCC1(CCc2ccccc2)CCN(C(C)c2ccc(C)nc2)C1 (stereo not shown) [Compound 294, 5-(1-(3-(ethoxymethyl)-3-phenethyl-pyrrolidin-1-yl)ethyl)-2-methylpyridine] | < 10
16 | c1ccc(CCC2(C3CCCO3)CCN(Cc3cccc(-c4ccco4)c3)C2)cc1 (stereo not shown) [Compound 219] | > 10

Row | Compound | ED50 [mg/kg]
17 | CC(=O)Nc1ccc(CN2CCC(/C=C/c3ccccn3)(c3ccccn3)CC2)cc1 [Compound 44, (E)-N-(4-((4-(pyridin-2-yl)-4-(2-(pyridin-2-yl)vinyl)piperidin-1-yl)methyl)phenyl)acetamide] | > 10
18 | CCOCC1(CCc2ccc(C)s2)CCN(Cc2cccnc2)C1 (stereo not shown) [Compound 285, 3-((3-(ethoxymethyl)-3-(2-(5-methylthiophen-2-yl)ethyl)pyrrolidin-1-yl)methyl)pyridine] | > 10
19 | CCOC[C@@]1(CCc2ccc(F)cn2)CCN(C2(c3cnc4c(c3)CCCC4)CC2)C1 [Compound 398, (S)-3-(1-(3-(ethoxymethyl)-3-(2-(5-fluoropyridin-2-yl)ethyl)pyrrolidin-1-yl)cyclopropyl)-5,6,7,8-tetrahydroquinoline] | < 10
20 | CNC(=O)c1ccc(CN2CCC(CCc3ccccc3)(c3ccccn3)CC2)cc1 [Compound 54, N-methyl-4-((4-phenethyl-4-(pyridin-2-yl)piperidin-1-yl)methyl)benzamide] | > 10
21 | CCOCC1(CCc2ccccc2)CCN(C(C)c2cccnc2)CC1 (stereo not shown) [Compound 327, 3-(1-(4-(ethoxymethyl)-4-phenethylpiperidin-1-yl)ethyl)pyridine] | < 10
22 | CCOC[C@@]1(CCc2cccs2)CCN(Cc2cccnn2)C1 [Compound 405, (S)-3-((3-(ethoxymethyl)-3-(2-(thiophen-2-yl)ethyl)pyrrolidin-1-yl)methyl)pyridazine] | > 10
23 | CC(=O)NCC1(CCc2ccccc2)CCN(Cc2ccc(NC(C)=O)cc2)CC1 [Compound 67, N-((1-(4-acetamidobenzyl)-4-phenethylpiperidin-4-yl)methyl)acetamide] | > 10
24 | CCCCC(=O)Nc1ccc(CN2CCC(CCc3ccccc3)(COCC)CC2)cc1 [Compound 82, N-(4-((4-(ethoxymethyl)-4-phenethylpiperidin-1-yl)methyl)phenyl)pen-tanamide] | > 10
25 | Cc1cncc(CN2CCC(CCc3ccccc3)(C3CCCO3)C2)c1 (stereo not shown) [Compound 257, 3-methyl-5-((3-phenethyl-3-(tetrahydrofuran-2-yl)pyrrolidin-1-yl)methyl)pyridine] | < 10
26 | CCOCC1(CCc2ccccn2)CCN(C(C)c2ccc(C)nc2)C1 (stereo not shown) [Compound 349, 5-(1-(3-(ethoxymethyl)-3-(2-(pyridin-2-yl)ethyl)pyrrolidin-1-yl)ethyl)-2-methylpyridine] | < 10
27 | CCOC[C@@]1(CCc2cccs2)CCN(Cc2ccc(=O)[nH]c2)C1.Cl [Compound 454, (S)-5-((3-(ethoxymethyl)-3-(2-(thiophen-2-yl)ethyl)pyrrolidin-1-yl)methyl)pyridin-2(1H)-one HCl] | > 10
28 | CCOCC1(CCc2ccccc2)CCN(Cc2ccnn2C)CC1 [Compound 246, 4-(ethoxymethyl)-1-((1-methyl-1H-pyrazol-5-yl)methyl)-4-phenethylpiperidine] | > 10
29 | O=C(Nc1ccc(CN2CCC(CCc3ccccc3)(c3ccccn3)CC2)cc1)c1ccccc1 [Compound 24, N-(4-((4-phenethyl-4-(pyridin-2-yl)piperidin-1-yl)methyl)phenyl)benz-amide] | > 10
30 | CNc1ccc(CN2CCC(CCc3ccccc3)(c3ccccn3)CC2)cc1 [Compound 25, N-methyl-4-((4-phenethyl-4-(pyridin-2-yl)piperidin-1-yl)methyl)aniline] | > 10
31 | Cn1cc(CN2CCC(CCc3ccccc3)(COCc3ccccc3)C2)cn1 (stereo not shown) [Compound 240, 4-((3-(benzyloxymethyl)-3-phenethylpyrrolidin-1-yl)methyl)-1-methyl-1H-pyrazole] | > 10
